Values of other authors in US12454515B2, “2-aminoindane compounds for mental disorders or enhancement” (Tactogen Inc, priority 2020, dated 2025).

Tested on: neuritogenesis
Conditions: literature value

CNC(C)Cc1ccc2c(c1)OCO2 (centres unmarked) [MDMA]
EC50 (Ly et al. Cell reports 23 (2018) Figure S3, read-out: EC50 for promoting neuritogenesis): 7.41 nM
Emax for promoting neuritogenesis (relative to ketamine, Ly et al. 2018): approximately twice that of ketamine
